Our source for the IC50 values is patent publication EP1354870A1, “DIHYD[…]” (CONSEJO SUPERIOR DE INVESTIGACIONES CIENTIFICAS, priority 2000, dated 2002).

For the test, the target named is T1, dihydroceramide desaturase (Rattus norvegicus, UniProt Q5XIF5).
T1 construct: from tissue; host or cells: rat liver microsomes
T1 sequence (Q5XIF5 1-323): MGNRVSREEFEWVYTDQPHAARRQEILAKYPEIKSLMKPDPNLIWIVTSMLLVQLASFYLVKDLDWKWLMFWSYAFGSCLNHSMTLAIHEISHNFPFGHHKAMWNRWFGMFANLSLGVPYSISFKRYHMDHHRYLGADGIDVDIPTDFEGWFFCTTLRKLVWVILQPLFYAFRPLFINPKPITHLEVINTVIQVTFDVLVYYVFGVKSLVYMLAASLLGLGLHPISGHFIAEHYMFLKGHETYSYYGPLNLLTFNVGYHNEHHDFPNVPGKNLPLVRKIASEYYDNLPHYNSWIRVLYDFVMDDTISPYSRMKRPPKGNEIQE
Briefly: Inhibitory activity on dihydroceramide desaturase in rat liver microsomes (GC-MS quantification of the desaturated product). It counts as biochemical. The conditions noted are these: substrate N-octanoyldihydrosphingosine 10 nmoles, NADH, 37°C for 30 minutes, without preincubation, effect dose-dependent. On the procedure: The inhibitory activity of the type I compounds that is claimed in this patent was tested on rat liver microsomes, prepared as described in [Michel, C. van Echten-Deckert, G.; Rother, J.; Sandhoff, K.; Wang, E.; Merrill, A. H. J. Biol. Chem. 1997, 272, 22432-22437]. The dihydroceramide desaturase activity was determined according to the procedure described in Michel, C. van Echten-Deckert, G.; Rother, J.; Sandhoff, K.; Wang, E.; Merrill, A. H. J. Biol. Chem. 1997, 272, 22432-22437, with the following modifications: compound la in increasing doses of 0, 0.6, 1.25, 2.5, 5 and 10 nmoles, was solubilized in BSA-ethanol 9:1 (100µl) and to the resulting solution 10 nmoles of substrate dissolved in 10µl of ethanol were added. To this solution was added a total of 0.3 mg of the microsomal suspension containing the desaturase, and 30 µl of a […] solution of NADH in 0.1M phosphate buffer, pH 7.5. The suspension was incubated at 37°C for 30 minutes and the reactions were stopped by adding 0.5 mL of chloroform containing 1 nmol of N-hexanoylsphingosine as an internal standard for quantification. Repeated lipid extractions with chloroform were carried out (2 x 250 µl) and the combined organic extracts were evaporated to dryness under a stream of Nitrogen. The resulting residue was treated with 50 µl of bis-trimethylsilyltrifluoroacetamide at 25°C for 60 minutes. […]
A general note: Liver microsomes are vesicles of endoplasmic reticulum, rich in cytochrome P450 enzymes.

SMILES strings stand for the structures.

As a reminder, the IC50 is the concentration that inhibits the measured activity by half. In turn, `CCCCCCCCCCCCCC1=C(C(O)C(CO)NC(=O)CCCCCCC)C1` (single isomer, unassigned) [la] had an IC50 of 0.052 µM.
